Experimental data as given in the supplement of paper PMC10307832.

Legend:
Test in all cases: relative viability (nuclei count vs DMSO), 5 days (fraction); higher = more cells survive
Alpelisib + OSI-027 = compound: Cc1nc(NC(=O)N2CCC[C@H]2C(N)=O)sc1-c1ccnc(C(C)(C)C(F)(F)F)c1 [Alpelisib] + COc1cccc2cc(-c3nc([C@H]4CC[C@H](C(=O)O)CC4)n4ncnc(N)c34)[nH]c12 [OSI-027] (partner 0.5 µM)
Summary of the method: (§1)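 Lung cancer cell lines in 1536-well plates were dosed by pin tool the day after seeding, either with one drug alone or with a fixed anchor-drug dose plus five library-drug doses (not always all listed) in √10 steps. After 5 days, cells were fixed and their nuclei stained in one step (final 0.05% Triton X-100, 1% formaldehyde, 1 ug/ml Hoechst), then counted on 4× images. Relative viability is the nuclei count in treated wells divided by that in vehicle wells. Values are medians of duplicate plates.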

Alpelisib + Decitabine = compound: Cc1nc(NC(=O)N2CCC[C@H]2C(N)=O)sc1-c1ccnc(C(C)(C)C(F)(F)F)c1 [Alpelisib] + Nc1ncn([C@H]2C[C@H](O)[C@@H](CO)O2)c(=O)n1 [Decitabine] (partner 2 µM)
Summary of the method: as §1

Vemurafenib + Lapatinib = compound: CCCS(=O)(=O)Nc1ccc(F)c(C(=O)c2c[nH]c3ncc(-c4ccc(Cl)cc4)cc23)c1F [Vemurafenib] + CS(=O)(=O)CCNCc1ccc(-c2ccc3ncnc(Nc4ccc(OCc5cccc(F)c5)c(Cl)c4)c3c2)o1 [Lapatinib] (partner 2 µM)
Summary of the method: as §1

Alpelisib + Pictilisib = compound: Cc1nc(NC(=O)N2CCC[C@H]2C(N)=O)sc1-c1ccnc(C(C)(C)C(F)(F)F)c1 [Alpelisib] + CS(=O)(=O)N1CCN(Cc2cc3nc(-c4cccc5[nH]ncc45)nc(N4CCOCC4)c3s2)CC1 [Pictilisib] (partner 1 µM)
Summary of the method: as §1

Cell Line	relative viability (Alpelisib + OSI-027; first compound 0.04 µM)	relative viability (Alpelisib + OSI-027; first compound 0.1265 µM)	relative viability (Alpelisib + OSI-027; first compound 0.4 µM)	relative viability (Alpelisib + OSI-027; first compound 1.265 µM)	relative viability (Alpelisib + OSI-027; first compound 4 µM)	relative viability (Alpelisib + Decitabine; first compound 0.04 µM)	relative viability (Alpelisib + Decitabine; first compound 0.1265 µM)	relative viability (Alpelisib + Decitabine; first compound 0.4 µM)	relative viability (Alpelisib + Decitabine; first compound 1.265 µM)	relative viability (Alpelisib + Decitabine; first compound 4 µM)	relative viability (Vemurafenib + Lapatinib; first compound 0.03162 µM)	relative viability (Vemurafenib + Lapatinib; first compound 0.1 µM)	relative viability (Vemurafenib + Lapatinib; first compound 0.3162 µM)	relative viability (Vemurafenib + Lapatinib; first compound 1 µM)	relative viability (Alpelisib + Pictilisib; first compound 0.04 µM)	relative viability (Alpelisib + Pictilisib; first compound 0.1265 µM)	relative viability (Alpelisib + Pictilisib; first compound 0.4 µM)	relative viability (Alpelisib + Pictilisib; first compound 1.265 µM)	relative viability (Alpelisib + Pictilisib; first compound 4 µM)
NCI-H1975	0.675	0.714	0.656	0.326	0.228	0.39	0.357	0.387	0.366	0.268	0.806	0.983	0.709	0.919	0.28	0.297	0.299	0.273	0.248
A-427	0.509	0.411	0.456	0.351	0.308	0.518	0.483	0.574	0.461	0.44	0.907	1.07	0.973	1.04	0.694	0.641	0.741	0.675	0.718
SK-LU-1	0.378	0.297	0.29	0.219	0.201	0.649	0.645	0.633	0.577	0.589	0.777	0.791		0.803	0.592	0.484	0.656	0.594	0.536
PC-3 [JPC-3]	0.831	0.642	0.68	0.593	0.488	0.798	0.757	0.887	0.813	0.79	0.464		0.626	0.445	0.76	0.715	0.737	0.767	0.676
ChaGo-K-1	0.543	0.592	0.49	0.394	0.342	0.52	0.529	0.526	0.475	0.446					0.714		0.883	0.625	0.492
NCI-H2023	0.357	0.33	0.311	0.192	0.156	0.205	0.188	0.234	0.245	0.183	0.734	0.812	0.736	0.725	0.203	0.26	0.253	0.207	0.19
LXF-289	0.725	0.626	0.685	0.567	0.427	0.373	0.352	0.336	0.377	0.277	0.892	0.883	0.87	0.965	0.762	0.805	0.855	0.707	0.733
EBC-1											0.201	0.214	0.245	0.261	0.417	0.345	0.412	0.298	0.349
LOU-NH91	0.754	0.601	0.638	0.543	0.49	0.823	0.781	0.79	0.679	0.648	0.683	0.78		0.781	0.537	0.504	0.559	0.52	0.457
PC-14	0.865	0.83	0.985	0.574	0.467	0.244	0.243	0.248	0.196	0.221	0.255		0.287	0.362	0.703	0.858	0.898	0.6	0.611
Calu-6											1.02	1.06	1.01	0.924	0.86	0.945	1.09	0.819	0.841
H3255	0.526	0.583	0.635	0.363	0.384	0.632	0.603	0.65	0.448	0.467	0.254		0.283	0.28	0.409	0.516	0.533	0.356	0.411
SW 900	0.527	0.524	0.742	0.568	0.45	0.425		0.411	0.505	0.379									
NCI-H1563	0.743	0.774	0.7	0.584	0.541						0.842	0.886	0.84	0.961	0.647	0.734	0.67	0.613	0.676
NCI-H522	0.722	0.622	0.605	0.629	0.5	0.707	0.741	0.681	0.591	0.61									
CAL-12T	0.67	0.449	0.823	0.411	0.403						0.63			0.618	0.388		0.65		0.329
NCI-H1623	0.494	0.338	0.383	0.34	0.28														
NCI-H2228	0.612	0.53	0.385	0.239	0.152						1.11	1.09	1.21	1.06	0.473	0.326	0.547	0.445	0.221
NCI-H1648		0.229	0.244	0.282	0.228	0.477	0.508	0.353	0.372	0.253									
NCI-H1299											0.965	0.93	0.885	0.952	0.871	0.76	0.793	0.796	0.599
NCI-H1703											1.19	0.916	0.924	0.987	0.254	0.249	0.227	0.235	0.26
A549						0.197	0.294	0.322	0.25	0.229	0.902	0.964	1.06	1.07	0.464	0.504	0.529	0.414	0.338
LCLC-103H	0.486	0.439	0.435	0.372	0.335	0.688	0.717	0.775	0.571	0.465					0.721	0.695	0.506	0.56	0.526
